The values that follow come from patent publication US6562244B1, “Method and apparatus for disinfecting drainage” (Ebara Corporation, priority 1998, dated 2003).

Data set [1] relates to coliform organisms. The data set can be described thus: Sterilization test of coliform organisms in treated sewage (Example 1). The following applies: for Coliform organism count: treated sewage (initial 12600 CFU/mL). In kind it is cell-based. The protocol: Treated sewage containing coliform organisms, as water to be treated, was subjected to a sterilization test. As a disinfectant, each of 1-bromo-3-chloro-5,5-dimethylhydantoin (hereinafter referred to as BCDMH) (Example 1) and sodium hypochlorite (Comparative Example 1) was used. The sterilization test of coliform organisms was conducted, with the concentration of the disinfectant being varied.
In the present specification, the proportion of the disinfectant added is expressed as active chlorine for each of the bromine-based disinfectant and the chlorine-based disinfectant, and is expressed as “mg/L as Cl” calculated as the active chlorine concentration. For example, when 1 g of BCDMH is added to 1 liter of drainage, its concentration is 540 mg/L as Cl.

Data set [2] relates to coliform organisms. The data set can be described thus: Sterilization test of treated drainage from marine product processing (Example 2). The following applies: for Coliform organism count: marine product processing drainage (initial 320000 CFU/mL). In kind it is cell-based. The protocol: Drainage from the marine product processing industry was subjected to coagulation, pressurization, floating, and separation. Then, the drainage was further treated by an activated sludge process. The resulting drainage was used as water to be treated. A sterilization test of this water to be treated was conducted, with the concentration of a disinfectant being varied. [table]

In another data set the test system is aquatic organisms. The following applies: calculated as active chlorine (Cl2); aquatic organisms in public waters; cited from earlier work.
For data set [3], the system named is coliform organisms. The data set can be described thus: Disinfection of wet-weather sewage by the system of FIGS. 1 to 3 (Example 3), coliform organism count. The data set is classed as cell-based. The protocol: Examples of the present invention will now be described, but the invention is not restricted thereby. Drainage was treated by the system show in FIGS. 1 to 3. In all of RUN 1 to RUN 4, the amount of the disinfectant being 0 (zero) corresponds to the incoming water quality of wet-weather sewage which has flowed into rainwater removal facilities.

The mark [4] stands for this setting: disinfectant added 2.0 mg/L as Cl.

Converted amounts (≈) assume the structure as drawn. Some results are limits rather than exact numbers.

Turning to `CC1(C)C(=O)N(Cl)C(=O)N1Br` [BCDMH, 1-bromo-3-chloro-5,5-dimethylhydantoin], the Coliform organism count with coliform organisms [1] (disinfectant added 0.5 mg/L as Cl) is 10800 CFU/mL; in the data set on coliform organisms [1] (disinfectant added 1.5 mg/L as Cl), 70 CFU/mL; in the data set with coliform organisms [1] (setting [4]), “Not detected”; in the data set on coliform organisms [2] (disinfectant added 2.0 mg/L as C1) it was 52000 CFU/mL; with coliform organisms [2] (disinfectant added 3.0 mg/L as C1), 1200 CFU/mL; in the data set with coliform organisms [2] (disinfectant added 3.5 mg/L as C1), “Not detected”. Also, the Coliform organism count is 83 × 10^2 CFU/ml in the data set on coliform organisms [3] (RUN 1, sewage 120 m^3/h (incoming 97 × 10^3), amount added 6.0 mg/l as chlorine (Cl2)); “less than 3,000 CFU/ml” in the data set on coliform organisms [3] (RUN 1, sewage 120 m^3/h (incoming 97 × 10^3), amount added 12.0 mg/l as chlorine (Cl2)); “less than 3,000 CFU/ml” with coliform organisms [3] (RUN 2, sewage 250 m^3/h (incoming 68 × 10^3), amount added 5.0 mg/l as chlorine (Cl2)); 18 × 10^2 CFU/ml with coliform organisms [3] (RUN 2, sewage 250 m^3/h (incoming 68 × 10^3), amount added 5.0 mg/l as chlorine (Cl2), listed as A); 20 or less CFU/ml in the data set on coliform organisms [3] (RUN 2, sewage 250 m^3/h (incoming 68 × 10^3), amount added 10.0 mg/l as chlorine (Cl2)); 28 × 10^2 CFU/ml with coliform organisms [3] (RUN 3, sewage 530 m^3/h (incoming 39 × 10^3), amount added 3.0 mg/l as chlorine (Cl2)). The “concentration exhibiting germicidal effect relative to the concentration of sodium hypochlorite” value in the data set with coliform organisms [1] (treated sewage, Example 1) was “a half or less”; in the data set on coliform organisms [2] (marine product processing drainage, Example 2) it was “⅓”. In addition, the “reaction time to show sufficient effect” value in the data set on coliform organisms [1] (treated sewage, Example 1) came out at 1 min. In addition, the LC50 with aquatic organisms is 0.4 µg/mL (≈ 1.66 µM). Moreover, the “duration of contact with combined sewer overflow for appropriate disinfection” value in the data set with coliform organisms [3] (RUN 3, sewage 530 m^3/hour, amount added 3 to 4.5 mg/l) is reported as “about 50 seconds”.
Take `OCl` [Sodium hypochlorite, sodium hypochlorite, reference compound]: the Coliform organism count is listed as 11800 CFU/mL in the data set on coliform organisms [1] (setting [4]); 2800 CFU/mL with coliform organisms [1] (disinfectant added 2.5 mg/L as Cl); 300 CFU/mL in the data set on coliform organisms [1] (disinfectant added 3.0 mg/L as Cl); “Not detected” with coliform organisms [1] (disinfectant added 3.5 mg/L as Cl); 135000 CFU/mL in the data set on coliform organisms [2] (disinfectant added 6 mg/L as C1); 1900 CFU/mL in the data set on coliform organisms [2] (disinfectant added 8 mg/L as C1). The Coliform organism count in the data set with coliform organisms [2] (disinfectant added 10 mg/L as C1) is on record as 900 CFU/mL; with coliform organisms [2] (disinfectant added 12 mg/L as C1), “Not detected”; in the data set on coliform organisms [3] (RUN 4, sewage 250 m^3/h (incoming 46 × 10^3), amount added 30 mg/l as chlorine (Cl2)) it was 19 × 10^3 CFU/ml; with coliform organisms [3] (RUN 4, sewage 250 m^3/h (incoming 46 × 10^3), amount added 60 mg/l as chlorine (Cl2)), > 3,000 CFU/ml; in the data set on coliform organisms [3] (RUN 4, sewage 250 m^3/h (incoming 46 × 10^3), amount added 60 mg/l as chlorine (Cl2), listed as B), 41 × 10^2 CFU/ml. Besides, in the data set with coliform organisms [1] (treated sewage, Example 1), the “reaction time to show sufficient effect” value is on record as “more than 5 minute”.
